Data reported in patent publication US20230053540A1, “TREATMENT OF LIVER INJURY” (Massachusetts Institute of Technology, priority 2019, published 2023).

Tested on: hepatocytes
Assay: Seq-Well scRNA-Seq of hepatocytes after APAP overdose (signature scores, DEG vs untreated)
Assay type: in vivo, mouse
[1] = cluster A96 (APAP, 96 h) vs other clusters, Wilcox
[2] = cluster A96, DEG between treatment (APAP and PH)

CC(=O)Nc1ccc(O)cc1 [APAP, acetaminophen]
avg_logFC Snx3 (cluster A48 (APAP, 48 h)): 0.2562 | avg_logFC Sord (cluster A48 (APAP, 48 h)): 0.3763 | avg_logFC St3gal5 (cluster A48 (APAP, 48 h)): 0.3766 | avg_logFC Stbd1 (cluster A48 (APAP, 48 h)): 0.2667 | avg_logFC Sult1a1 (cluster A48 (APAP, 48 h)): 0.3856 | avg_logFC Sult1d1 (cluster A48 (APAP, 48 h)): 0.5282 | avg_logFC Syvn1 (cluster A48 (APAP, 48 h)): 0.2867 | avg_logFC Tcea3 (cluster A48 (APAP, 48 h)): 0.3934 | avg_logFC Tef (cluster A48 (APAP, 48 h)): 0.3162 | avg_logFC Tmbim4 (cluster A48 (APAP, 48 h)): 0.3931 | avg_logFC Tmbim6 (cluster A48 (APAP, 48 h)): 0.3567 | avg_logFC Tmem219 (cluster A48 (APAP, 48 h)): 0.2647 | avg_logFC Ttc36 (cluster A48 (APAP, 48 h)): 0.6145 | avg_logFC Ttpa (cluster A48 (APAP, 48 h)): 0.4757 | avg_logFC Ttr (cluster A48 (APAP, 48 h)): 0.4205 | avg_logFC Ugt2b5 (cluster A48 (APAP, 48 h)): 0.6108 | avg_logFC Ugt2b36 (cluster A48 (APAP, 48 h)): 0.3503 | avg_logFC Upb1 (cluster A48 (APAP, 48 h)): 0.3631 | avg_logFC Usmg5 (cluster A48 (APAP, 48 h)): 0.4173 | avg_logFC Vnn3 (cluster A48 (APAP, 48 h)): 0.3054 | avg_logFC Vtn (cluster A48 (APAP, 48 h)): 0.3638 | avg_logFC Yipf3 (cluster A48 (APAP, 48 h)): 0.2702 | avg_logFC Zfp91 (cluster A48 (APAP, 48 h)): 0.3221 | pct.1, gene Abcc3 (cluster A96): 0.733 | pct.1, gene Acaa1b (cluster A96): 0.986 | pct.1, gene Acat1 (cluster A96): 0.917 | pct.1, gene Acot1 (cluster A96): 0.459 | pct.1, gene Agpat6 (cluster A96): 0.743 | pct.1, gene Agt (cluster A96): 0.912 | pct.1, gene Akr1d1 (cluster A96): 0.721 | pct.1, gene Aldh9a1 (cluster A96): 0.884 | pct.1, gene Aplp2 (cluster A96): 0.826 | pct.1, gene Apo17a (cluster A96): 0.559 | pct.1, gene Apoc2 (cluster A96): 0.901 | pct.1, gene Aqp9 (cluster A96): 0.801 | pct.1, gene Arl4a (cluster A96): 0.517 | pct.1, gene Asl (cluster A96): 0.896 | pct.1, gene Baat (cluster A96): 0.862 | pct.1, gene Bnip3 (cluster A96): 0.716 | pct.1, gene Cd36 (cluster A96): 0.299 | pct.1, gene Ces1e (cluster A96): 0.71 | pct.1, gene Cox5a (cluster A96): 0.813 | pct.1, gene Cox6a1 (cluster A96): 0.943 | pct.1, gene Cox8a (cluster A96): 0.737 | pct.1, gene Cpeb4 (cluster A96): 0.527 | pct.1, gene Cpox (cluster A96): 0.634 | pct.1, gene Cpt1a (cluster A96): 0.837 | pct.1, gene Creg1 (cluster A96): 0.985 | pct.1, gene Csad (cluster A96): 0.843 | pct.1, gene Ctage5 (cluster A96): 0.837 | pct.1, gene Cth (cluster A96): 0.944 | pct.1, gene Cxcl12 (cluster A96): 0.635 | pct.1, gene D4Wsu53e (cluster A96): 0.597 | pct.1, gene Decr2 (cluster A96): 0.813 | pct.1, gene Dhdh (cluster A96): 0.734 | pct.1, gene Etfdh (cluster A96): 0.811 | pct.1, gene Etnppl (cluster A96): 0.677 | pct.1, gene F5 (cluster A96): 0.858 | pct.1, gene Fmo1 (cluster A96): 0.606 | pct.1, gene G0s2 (cluster A96): 0.525 | pct.1, gene G6pc (cluster A96): 0.86 | pct.1, gene Gabarapl1 (cluster A96): 0.881 | pct.1, gene Gadd45b (cluster A96): 0.452 | pct.1, gene Gas5 (cluster A96): 0.68 | pct.1, gene Gm4952 (cluster A96): 0.663 | pct.1, gene Gsta2 (cluster A96): 0.522 | pct.1, gene Gstt3 (cluster A96): 0.541 | pct.1, gene Gyk (cluster A96): 0.616 | pct.1, gene Hmgcl (cluster A96): 0.871 | pct.1, gene Hmgcs1 (cluster A96): 0.858 | pct.1, gene Hpgd (cluster A96): 0.588 | pct.1, gene Hsd17b7 (cluster A96): 0.56 | pct.1, gene Hsd17b10 (cluster A96): 0.841 | pct.1, gene Igfbp1 (cluster A96): 0.826 | pct.1, gene Kif1b (cluster A96): 0.686 | pct.1, gene Lcat (cluster A96): 0.886 | pct.1, gene Mia3 (cluster A96): 0.81 | pct.1, gene Ndufa3 (cluster A96): 0.737 | pct.1, gene Ndufa7 (cluster A96): 0.818 | pct.1, gene Nr1i3 (cluster A96): 0.625 | pct.1, gene Oat (cluster A96): 0.653 | pct.1, gene Pon1 (cluster A96): 0.965 | pct.1, gene Por (cluster A96): 0.858 | pct.1, gene Ppp1r3b (cluster A96): 0.536 | pct.1, gene Ppp2r5a (cluster A96): 0.764 | pct.1, gene Ptms (cluster A96): 0.806 | pct.1, gene Pxmp4 (cluster A96): 0.687 | pct.1, gene Rdh16 (cluster A96): 0.494 | pct.1, gene Rdx (cluster A96): 0.824 | pct.1, gene Rgn (cluster A96): 0.899 | pct.1, gene Sc4mol (cluster A96): 0.781 | pct.1, gene Slc4a4 (cluster A96): 0.609 | pct.1, gene Slc25a20 (cluster A96): 0.671 | pct.1, gene Slco1a4 (cluster A96): 0.507 | pct.1, gene Snord118 (cluster A96): 0.564 | pct.1, gene Tgoln1 (cluster A96): 0.756 | pct.1, gene Tmed5 (cluster A96): 0.714 | pct.1, gene Tobi (cluster A96): 0.649 | pct.1, gene Tsc22d3 (cluster A96): 0.534 | pct.1, gene Zfp36l1 (cluster A96): 0.601 | pct.1, gene Zfp91 (cluster A96): 0.693 | Acaa1b avg_logFC [1]: 0.282 | Acat1 avg_logFC [1]: 0.2558 | Acot1 avg_logFC [1]: 0.3106 | Agpat6 avg_logFC [1]: 0.3143 | Agt avg_logFC [1]: 0.255 | Akr1d1 avg_logFC [1]: 0.2994 | Aldh9a1 avg_logFC [1]: 0.2585 | Apo17a avg_logFC [1]: 0.2518 | Apoc2 avg_logFC [1]: 0.2781 | Aqp9 avg_logFC [1]: 0.3178 | Arl4a avg_logFC [1]: 0.2706 | Asl avg_logFC [1]: 0.275 | Baat avg_logFC [1]: 0.2728 | Bnip3 avg_logFC [1]: 0.3208 | Cd36 avg_logFC [1]: 0.3129 | Ces1e avg_logFC [1]: 0.2566 | Cox5a avg_logFC [1]: 0.2728 | Cox6a1 avg_logFC [1]: 0.2746 | Cox8a avg_logFC [1]: 0.2519 | Cpeb4 avg_logFC [1]: 0.3011 | Cpox avg_logFC [1]: 0.3229 | Cpt1a avg_logFC [1]: 0.2626 | Creg1 avg_logFC [1]: 0.2517 | Csad avg_logFC [1]: 0.4207 | Ctage5 avg_logFC [1]: 0.2535 | Cth avg_logFC [1]: 0.2966 | Cxcl12 avg_logFC [1]: 0.2822 | D4Wsu53e avg_logFC [1]: 0.2928 | Decr2 avg_logFC [1]: 0.3018 | Dhdh avg_logFC [1]: 0.2626 | Etfdh avg_logFC [1]: 0.2639 | Etnppl avg_logFC [1]: 0.3154 | Fmo1 avg_logFC [1]: 0.265 | G0s2 avg_logFC [1]: 0.2656 | G6pc avg_logFC [1]: 0.2541 | Gabarapl1 avg_logFC [1]: 0.2932 | Gadd45b avg_logFC [1]: 0.2598 | Gas5 avg_logFC [1]: 0.2823 | Gm4952 avg_logFC [1]: 0.2581 | Gsta2 avg_logFC [1]: 0.311 | Gstt3 avg_logFC [1]: 0.3026 | Gyk avg_logFC [1]: 0.3134 | Hmgcl avg_logFC [1]: 0.2744 | Hmgcs1 avg_logFC [1]: 0.3251 | Hpgd avg_logFC [1]: 0.3412 | Hsd17b7 avg_logFC [1]: 0.3028 | Hsd17b10 avg_logFC [1]: 0.2802 | Kif1b avg_logFC [1]: 0.2961 | Leaf avg_logFC [1]: 0.2616 | Mia3 avg_logFC [1]: 0.2605 | Ndufa3 avg_logFC [1]: 0.2743 | Ndufa7 avg_logFC [1]: 0.26 | Nr1i3 avg_logFC [1]: 0.3481 | Oat avg_logFC [1]: 0.4904 | Pon1 avg_logFC [1]: 0.2899 | Ppp1r3b avg_logFC [1]: 0.251 | Ppp2r5a avg_logFC [1]: 0.3505 | Ptms avg_logFC [1]: 0.2863 | Pxmp4 avg_logFC [1]: 0.2555 | Rdh16 avg_logFC [1]: 0.3477 | Sc4mol avg_logFC [1]: 0.3361 | Slc4a4 avg_logFC [1]: 0.2977 | Slc25a20 avg_logFC [1]: 0.2507 | Slco1a4 avg_logFC [1]: 0.3049 | Snord118 avg_logFC [1]: 0.3782 | Tgoln1 avg_logFC [1]: 0.2809 | Tmed5 avg_logFC [1]: 0.2523 | Tobi avg_logFC [1]: 0.2958 | Tsc22d3 avg_logFC [1]: 0.3362 | Zfp36l1 avg_logFC [1]: 0.2964 | Zfp91 avg_logFC [1]: 0.2775 | avg_logFC, gene Abcc3 [2]: 0.2743 | avg_logFC, gene Acaa1b [2]: 0.282 | avg_logFC, gene Acat1 [2]: 0.2558 | avg_logFC, gene Acot1 [2]: 0.3106 | avg_logFC, gene Agpat6 [2]: 0.3143 | avg_logFC, gene Agt [2]: 0.255 | avg_logFC, gene Akr1d1 [2]: 0.2994 | avg_logFC, gene Aldh9a1 [2]: 0.2585 | avg_logFC, gene Aplp2 [2]: 0.2903 | avg_logFC, gene Apo17a [2]: 0.2518 | avg_logFC, gene Apoc2 [2]: 0.2781 | avg_logFC, gene Aqp9 [2]: 0.3178 | avg_logFC, gene Arl4a [2]: 0.2706 | avg_logFC, gene Asl [2]: 0.275 | avg_logFC, gene Baat [2]: 0.2728 | avg_logFC, gene Bnip3 [2]: 0.3208 | avg_logFC, gene Cd36 [2]: 0.3129 | avg_logFC, gene Ces1e [2]: 0.2566 | avg_logFC, gene Cox5a [2]: 0.2728 | avg_logFC, gene Cox6a1 [2]: 0.2745 | avg_logFC, gene Cox8a [2]: 0.2519 | avg_logFC, gene Cpeb4 [2]: 0.3011 | avg_logFC, gene Cpox [2]: 0.3229 | avg_logFC, gene Cpt1a [2]: 0.2626 | avg_logFC, gene Creg1 [2]: 0.2517 | avg_logFC, gene Csad [2]: 0.4207 | avg_logFC, gene Ctage5 [2]: 0.2535 | avg_logFC, gene Cth [2]: 0.2966 | avg_logFC, gene Cxcl12 [2]: 0.2821 | avg_logFC, gene D4Wsu53e [2]: 0.2928
